Assay results taken from article PMC7407621, “Enhancing a de novo enzyme activity by computationally-focused ultra-low-throughput screening” (Chemical Science, 2020).

Tested on: GNCA4-WT (GNCA4-W229D/F290W)
Settings: pH 7, 25 °C, 100 mM NaCl, 5% acetonitrile, His-tag

SMILES: O=[N+]([O-])c1ccc2oncc2c1 [5-nitrobenzisoxazole]
- Km: 3.7 ± 0.8 mM
